Test results: patent US20060088545A1, “Use of inhibitors of the protease of the human immunodeficiency virus (hiv) to block cell migration and/or invasion, tissue infiltration and oedema for the therary of diseases associated therewith” (priority 2001, published 2006)
Entries after “also recorded” stand apart in the source; their conditions may differ.

Assays:
[1] = test system: myelo-monocytic leukaemia (U937) cells; assay: Tumour lesions induced by U937 cells in nude mice; format: in vivo; conditions: 5×10^6 cells/site; daily treatment
Description: (§1) The treatment with HIV-PI or saline solution continued until sacrifice. The size of the lesions present at the injection site was evaluated daily by caliper measurement. External lesion area was then calculated as the product of the two major lesion diameters. The mean size (cm^2) of the lesions present at the injection site is shown.
(§2) To determine whether HIV-PI could inhibit the growth of malignant solid and lymphoid tumours, nude mice were inoculated with hepato-carcinoma cells (SK-Hep-1), lung carcinoma cells (A549), breast adeno-carcinoma cells (MDA-MB-468), myelo-monocytic leukaemia cells (U937), and T lymhocytic leukaemia cells (Jurkat).

[2] = test system: primary macrovascular (umbilical vein) endothelial cells (HUVEC); assay: Boyden chamber invasion assay of HUVEC in response to bFGF; format: cell-based, human; conditions: 0.1, 1 or 10 μM; bFGF 50 ng/ml; 6 hours
Description: Both assays were performed on endothelial cells.
Both assays were performed by the Boyden chamber separated in two compartments by polycarbonate filters with 12 μm pores (Nucleoprobe, Cabin John, Md.), coated with collagen IV (Collaborative Biomedical Products) for migration, or with collagen IV and Matrigel together for invasion, as described previously (Barillari et al., 1999b). […] After 5 hours (migration) or 6 hours (Invasion) of incubation, the non-migrated cells present on the top surface of the filters were mechanically removed, while the migrated cells on the bottom surface were fixed in methanol and stained with toluidine blue (Sigma Chemical Co., St. Louis, Mo.). The cells present in 5-10 microscopic fields of the filters, chosen at random, were counted as described previously (Barillari et al., 1999b).
The concentrations of HIV-PI used were the same as those present in plasma of treated patients (Deeks et al., 1997).

[3] = test system: VEGF; assay: VEGF production by KS cells (ELISA); format: cell-based, human; conditions: 0.1, 1 and 10 μM; 5 days + 24 hours
Description: (§3) After 24 hours of incubation, the supernatants of the cultures were tested by ELISA (R & D Systems, Minneapolis, Minn., USA) to determine the quantity of IL-6 present in the medium. The quantity of IL-6 is expressed in pg/ml of supernatant. The same tests were carried out for bFGF, VEGF, IL-1α and IL-1β by means of commercial ELISA kits.
(§4) KS cells secrete cytokines with an inflammatory, oedemigenic, angiogenic and proliferative activity with autocrine and paracrine effects (Ensoli and Stürzl, 1998). These factors mediate all the processes required for KS-like lesions formation (angiogenesis, cellular proliferation and invasion, inflammatory Infiltration, oedema) and vascular permeability and oedema induced by KS cells in nude mice. […] The quantity of bFGF, VEGF, IL-1 and IL-6 was dosed with immuno-enzymatic trials in the supernatants of the KS cells after 24 hours of culture in the absence of serum and in the continuous presence of the two HIV-PI (ELISA). […] Furthermore IL-6 plays a key role in the multicentric Cstleman's diseases and in the growth of lymphomas (Tosato et al., 1993; Peterson and Frizzera, 1993; Asou et al., 1998; Ramsay et al., 1994), another type of tumour whose incidence is reduced in patients treated with HIV-PI (International Collaboration on HIV and Cancer 2000).

[4] = test system: hepato-carcinoma (SK-Hep-1) cells; assay: Tumour lesions induced by SK-Hep-1 cells in nude mice; format: in vivo; conditions: 5×10^6 cells/site; daily treatment
Description: as §1, with “Twenty-four hours before cell injection, the mice have received sub-lethal irradiation (400 G) in order to increase the tumour up-take. The treatment” for “The treatment”
as §2

[5] = test system: breast carcinoma cells (MDA-MB-468); assay: Cell growth assay of MDA-MB-468 cells; format: cell-based, human; conditions: 10 μM; 4 days
Description: Shown is the result of a representative cell growth assay performed on the breast carcinoma cells. Human breast carcinoma cells (MDA-MB468; ATCC) were plated in triplicate (8×10^4 cells/well) in 12-well plates. […] Ensoli et al., 1994b): For all the in vitro studies HIV-PI as endotoxin-free pure powder (a kind gift of Merck Sharp & Dohme and Roche) were resuspended in distilled water. Assays were repeated at least three times.

[6] = test system: endothelial/lung carcinoma hybrid (Ea-hy 926) cells; assay: Invasion assay of Ea-hy 926 cells in response to bFGF; format: cell-based, human; conditions: 1 μM
Description: (§5) The assays have been performed essentially as described in key to FIG. 1. No growth factors were added to EA-hy 926 cells since they produce factors which mediates cell growth in autocrine fashion (Edgell et al., 1983, Albini et al., PNAS 1995, Albini et al., Nat Med 1996). […] The assays have been performed essentially as described in legend to FIG. 3. Average and variation range of two independent experiments each performed in duplicate are shown.

[7] = test system: myelo-monocytic leukaemia (U937) cells; assay: Invasion assay of U937 cells in response to bFGF; format: cell-based, human; conditions: 1 or 10 μM
Description: Shown is the result of a representative invasion assay performed on the myelo-monocytic leukaemia cells U937. […] The invasion assays were performed in the Boyden chamber. Polycarbonate filters (5 μM pores; Nucleoprobe, Cabin John, Md.) were coated first with collagen IV and then with Matrigel (Collaborative Biomedical Products) as described previously (Barillari et al., 1999b). […] Human recombinant bFGF (50 ng/ml) was placed in the lower compartment as chemoattractant. […] Louis, Mo.). Ten random filter fields were counted by light microscopy as described previously (Barillari et al., 1999b). Assays were repeated two times.

[8] = test system: bFGF; assay: bFGF production by KS cells (ELISA); format: cell-based, human; conditions: 0.1, 1 and 10 μM; 5 days + 24 hours
Description: as §3, §4

[9] = test system: IL-1α; assay: IL-1α production by KS cells (ELISA); format: cell-based, human; conditions: 0.1, 1 and 10 μM, 5 days + 24 hours
Description: as §3, §4

[10] = test system: lung carcinoma (A549) cells; assay: Lesions induced by A549 cells in nude mice; format: in vivo; conditions: 5×10^6 cells/site; daily treatment
Description: as §1, §2

[11] = test system: dermal microvascular endothelial cells (H-DMVEC); assay: Proliferation assay of dermal microvascular endothelial cells with bFGF; format: cell-based, human; conditions: 10 μM; 5 days; bFGF 10 ng/ml
Source text: After 5 days of culture, cells were counted by trypan blue dye exclusion, as described above. Data from duplicate experiments are expressed as the number of […] grown in response to bFGF in the presence of indinavir, saquinavir or HIV-PI-resuspension buffer.

[12] = test system: endothelial/lung carcinoma hybrid (Ea-hy 926) cells; assay: Cell growth assay of Ea-hy 926 cells; format: cell-based, human; conditions: 1 μM; 5 days
Description: as §5

| Compound | development of tumour lesions (lesion size) [1] | invasion induced by bFGF [2] | production of VEGF by KS cells [3] | development of tumour lesions (lesion size) [4] | proliferation [5] | invasion in response to bFGF [6] | invasive capacity in response to bFGF [7] | production of bFGF by KS cells [8] | production of IL-1α by KS cells [9] | production of IL-1α by KS cells ([9]; listed as indinavir) | development of lesions (lesion size) [10] | proliferation in response to bFGF [11] | proliferation [12] |
| --- | --- | --- | --- | --- | --- | --- | --- | --- | --- | --- | --- | --- | --- |
| CC(C)(C)NC(=O)[C@@H]1CN(Cc2cccnc2)CCN1C[C@@H](O)C[C@@H](Cc1ccccc1)C(=O)N[C@H]1c2ccccc2C[C@H]1O [Indinavir, indinavir] | inhibit | block | reduced | inhibit | do not interfere | inhibit | inhibit | reduced | inhibited | reduced | inhibit | do not interfere | do not interfere |
| CC(C)(C)NC(=O)[C@@H]1C[C@@H]2CCCC[C@@H]2CN1C[C@@H](O)[C@H](Cc1ccccc1)NC(=O)[C@H](CC(N)=O)NC(=O)c1ccc2ccccc2n1 [Saquinavir, saquinavir] | inhibit | block | reduced | inhibit | do not interfere | inhibit | inhibit | reduced | reduced; also recorded: inhibited |  | inhibit | do not interfere | do not interfere |
